In US20040014047A1, “Antisense modulation of LIM domain kinase 1 expression” (Isis Pharmaceuticals Inc., priority 2002, published 2004):
Strand notation (5' to 3'): a small letter for the sugar, then the base; units joined by * are phosphorothioate-linked, units joined directly phosphodiester-linked; [ ] holds rarer units or linkages, { } end groups; capitals alone tell only the bases. e = 2'-O-(2-methoxyethyl) (MOE); [5mC] = 5-methylcytosine; d = 2'-deoxy (DNA)

System: human LIM domain kinase 1 mRNA
Assay: Antisense inhibition of human LIM domain kinase 1 mRNA levels, quantitative real-time PCR, A549 cells (screen)
Format: cell-based
Conditions: real-time PCR, bound stated
Procedure: When cells reached 70% confluency, they were treated with oligonucleotide. […] Cells were harvested 16-24 hours after oligonucleotide treatment.
Vacuum was applied for 1 minute.
PCR reagents were obtained from Invitrogen Corporation, (Carlsbad, Calif.).
Total RNA is quantified using RiboGreenTM RNA quantification reagent from Molecular Probes.
Probes and primers to human LIM domain kinase 1 were designed to hybridize to a human LIM domain kinase 1 sequence, using published sequence information (GenBank accession number D26309.1, incorporated herein as SEQ ID NO:4). For human LIM domain kinase 1 the PCR primers were: forward primer: […] (SEQ ID NO: 5) reverse primer: […] (SEQ ID NO: 6) and the PCR probe was: FAM-[…]-TAMRA (SEQ ID NO: 7) where FAM is the fluorescent dye and TAMRA is the quencher dye.
All cytidine residues are 5-methylcytidines. […] Data are averages from two experiments in which A549 cells were treated with the oligonucleotides of the present invention. […] If present, “N.D.” indicates “no data”.

Inhibition of human LIM domain kinase 1 expression (text summary of Table 1), at least 65%:
agggcctggaggtactggcc (eA*eG*eG*eG*e[5mC]*d[5mC]*dT*dG*dG*dA*dG*dG*dT*dA*d[5mC]*eT*eG*eG*e[5mC]*e[5mC]; antisense) [ISIS 206171]
aggtaggccatccctgatgc (eA*eG*eG*eT*eA*dG*dG*d[5mC]*d[5mC]*dA*dT*d[5mC]*d[5mC]*d[5mC]*dT*eG*eA*eT*eG*e[5mC]; antisense) [ISIS 206201]
aggtccttgcgctgggaggc (eA*eG*eG*eT*e[5mC]*d[5mC]*dT*dT*dG*d[5mC]*dG*d[5mC]*dT*dG*dG*eG*eA*eG*eG*e[5mC]; antisense) [ISIS 206193]
agtacagcttggagtgctcc (eA*eG*eT*eA*e[5mC]*dA*dG*d[5mC]*dT*dT*dG*dG*dA*dG*dT*eG*e[5mC]*eT*e[5mC]*e[5mC]; antisense) [ISIS 206178]
agtagtccttcttgcagaag (eA*eG*eT*eA*eG*dT*d[5mC]*d[5mC]*dT*dT*d[5mC]*dT*dT*dG*d[5mC]*eA*eG*eA*eA*eG; antisense) [ISIS 206173]
atacgttcttccctccaggt (eA*eT*eA*e[5mC]*eG*dT*dT*d[5mC]*dT*dT*d[5mC]*d[5mC]*d[5mC]*dT*d[5mC]*e[5mC]*eA*eG*eG*eT; antisense) [ISIS 206167]
atgctgcagctcctcctggg (eA*eT*eG*e[5mC]*eT*dG*d[5mC]*dA*dG*d[5mC]*dT*d[5mC]*d[5mC]*dT*d[5mC]*e[5mC]*eT*eG*eG*eG; antisense) [ISIS 206232]
atttccaagatccggtctcc (eA*eT*eT*eT*e[5mC]*d[5mC]*dA*dA*dG*dA*dT*d[5mC]*d[5mC]*dG*dG*eT*e[5mC]*eT*e[5mC]*e[5mC]; antisense) [ISIS 206184]
caggtgcaacaaagtagcgt (e[5mC]*eA*eG*eG*eT*dG*d[5mC]*dA*dA*d[5mC]*dA*dA*dA*dG*dT*eA*eG*e[5mC]*eG*eT; antisense) [ISIS 206164]
cattcttgttctcgcggacc (e[5mC]*eA*eT*eT*e[5mC]*dT*dT*dG*dT*dT*d[5mC]*dT*d[5mC]*dG*d[5mC]*eG*eG*eA*e[5mC]*e[5mC]; antisense) [ISIS 206204]
ccacctcccgcggaggaatc (e[5mC]*e[5mC]*eA*e[5mC]*e[5mC]*dT*d[5mC]*d[5mC]*d[5mC]*dG*d[5mC]*dG*dG*dA*dG*eG*eA*eA*eT*e[5mC]; antisense) [ISIS 206208]
ccaggtgagtgtgcaaggca (e[5mC]*e[5mC]*eA*eG*eG*dT*dG*dA*dG*dT*dG*dT*dG*d[5mC]*dA*eA*eG*eG*e[5mC]*eA; antisense) [ISIS 206230]
cctccagggagctatggacc (e[5mC]*e[5mC]*eT*e[5mC]*e[5mC]*dA*dG*dG*dG*dA*dG*d[5mC]*dT*dA*dT*eG*eG*eA*e[5mC]*e[5mC]; antisense) [ISIS 206210]
cgccatagcgggcccagtag (e[5mC]*eG*e[5mC]*e[5mC]*eA*dT*dA*dG*d[5mC]*dG*dG*dG*d[5mC]*d[5mC]*d[5mC]*eA*eG*eT*eA*eG; antisense) [ISIS 206176]
ctcagacccttgagttactg (e[5mC]*eT*e[5mC]*eA*eG*dA*d[5mC]*d[5mC]*d[5mC]*dT*dT*dG*dA*dG*dT*eT*eA*e[5mC]*eT*eG; antisense) [ISIS 206227]
ctctgggccacggcagagag (e[5mC]*eT*e[5mC]*eT*eG*dG*dG*d[5mC]*d[5mC]*dA*d[5mC]*dG*dG*d[5mC]*dA*eG*eA*eG*eA*eG; antisense) [ISIS 206209]
ctgctgcagccgtatgaaaa (e[5mC]*eT*eG*e[5mC]*eT*dG*d[5mC]*dA*dG*d[5mC]*d[5mC]*dG*dT*dA*dT*eG*eA*eA*eA*eA; antisense) [ISIS 206162]
ctggctgtccatgctcttga (e[5mC]*eT*eG*eG*e[5mC]*dT*dG*dT*d[5mC]*d[5mC]*dA*dT*dG*d[5mC]*dT*e[5mC]*eT*eT*eG*eA; antisense) [ISIS 206200]
cttcctctcccatacgttct (e[5mC]*eT*eT*e[5mC]*e[5mC]*dT*d[5mC]*dT*d[5mC]*d[5mC]*d[5mC]*dA*dT*dA*d[5mC]*eG*eT*eT*e[5mC]*eT; antisense) [ISIS 206169]
gacaggtttctgccgggcag (eG*eA*e[5mC]*eA*eG*dG*dT*dT*dT*d[5mC]*dT*dG*d[5mC]*d[5mC]*dG*eG*eG*e[5mC]*eA*eG; antisense) [ISIS 206190]
gcagctgctgctgcagccgt (eG*e[5mC]*eA*eG*e[5mC]*dT*dG*d[5mC]*dT*dG*d[5mC]*dT*dG*d[5mC]*dA*eG*e[5mC]*e[5mC]*eG*eT; antisense) [ISIS 206215]
gcagtgcccgcagtacagct (eG*e[5mC]*eA*eG*eT*dG*d[5mC]*d[5mC]*d[5mC]*dG*d[5mC]*dA*dG*dT*dA*e[5mC]*eA*eG*e[5mC]*eT; antisense) [ISIS 206179]
gcagtgcccgctgcaagagc (eG*e[5mC]*eA*eG*eT*dG*d[5mC]*d[5mC]*d[5mC]*dG*d[5mC]*dT*dG*d[5mC]*dA*eA*eG*eA*eG*e[5mC]; antisense) [ISIS 206231]
gcatcgcatgaccttcacct (eG*e[5mC]*eA*eT*e[5mC]*dG*d[5mC]*dA*dT*dG*dA*d[5mC]*d[5mC]*dT*dT*e[5mC]*eA*e[5mC]*e[5mC]*eT; antisense) [ISIS 206197]
gccattgatttccaagatcc (eG*e[5mC]*e[5mC]*eA*eT*dT*dG*dA*dT*dT*dT*d[5mC]*d[5mC]*dA*dA*eG*eA*eT*e[5mC]*e[5mC]; antisense) [ISIS 206185]
gctgctgcagccgtatgaaa (eG*e[5mC]*eT*eG*e[5mC]*dT*dG*d[5mC]*dA*dG*d[5mC]*d[5mC]*dG*dT*dA*eT*eG*eA*eA*eA; antisense) [ISIS 206224]
ggaattcttcacatctgggc (eG*eG*eA*eA*eT*dT*d[5mC]*dT*dT*d[5mC]*dA*d[5mC]*dA*dT*d[5mC]*eT*eG*eG*eG*e[5mC]; antisense) [ISIS 206182]
ggagtgaaagcacccagctg (eG*eG*eA*eG*eT*dG*dA*dA*dA*dG*d[5mC]*dA*d[5mC]*d[5mC]*d[5mC]*eA*eG*e[5mC]*eT*eG; antisense) [ISIS 206225]
